Experimental data from publication PMC12030627, “Radioiodinated Bicyclic RGD Peptide Derivatives for Enhanced Tumor Accumulation” (Pharmaceuticals, 2025).
Read-outs that look alike come from different tables or passages of the source. Starred links: 1 amine or outer side, 2 acyl side, 3 side chain; linkers in the order of their positions; H or OH if unused. Positions of bridges follow the written chain, without caps; N, C: chain ends. Non-standard residues stand in square brackets, D forms with d. Residues, ends and D or L forms follow the SMILES beside them. *: point of attachment. TBMB = c1c(C[*:1])cc(C[*:3])cc1C[*:2]; Palmitoyl = CCCCCCCCCCCCCCCC(=O)*; Benzoyl(3-I) = O=C(c1cccc(I)c1)*; 4Abz = Nc1ccc(C(=O)O)cc1

Assay: Biodistribution in U-87 MG tumor-bearing mice
Assay type: in vivo, BALB/c nu-nu mice
Settings: male, BALB/c nu-nu, mouse, iv, 37 kBq, total radioactivity; for tissue uptake at 5 min: 5 min after i.v. administration; for tissue uptake at 5 min / tissue uptake at 0.5 h / tissue uptake at 1 h / tissue uptake at 2 h / tissue uptake at 6 h / tissue uptake at 12 h / tissue uptake at 24 h: U-87 MG-bearing mice, mean ± SD, n = 3; for tissue uptake at 0.5 h: 30 min after i.v. administration; for tissue uptake at 1 h: 1 h after i.v. administration; for tissue uptake at 2 h: 2 h after i.v. administration; for tissue uptake at 6 h: 6 h after i.v. administration; for tissue uptake at 12 h: 12 h after i.v. administration; for tissue uptake at 24 h: 24 h after i.v. administration
Procedure: Animal experiments were performed in compliance with institutional animal care regulations, with the study protocol approved by the Experimental Animal Committee of Osaka Medical and Pharmaceutical University (Approval Numbers: 21–76, 22–76, and 23–76). Four-week-old male BALB/c nu-nu mice (Japan SLC, Shizuoka, Japan) were housed under a 12 h light/12 h dark cycle with free access to food and water. Tumor-bearing mice were established by suspending U-87 MG cells (2 × 10^6 cells/mouse) in PBS(–) and subcutaneously injecting 100 μL of the suspension into the right hind leg. For co-implantation models, A549 cells (2 × 10^6 cells/mouse) were suspended in PBS(–) and inoculated (100 μL) into the left hind leg of the same mice already inoculated with U-87 MG cells. Mice with tumor size approximately 10 mm in diameter, 4–5 weeks after inoculation, were used for biodistribution studies. Animals in which either tumor was not viable were excluded from the experiment.
U-87 MG-bearing mice (n = 42, 8–9 weeks old; 22–27 g) were randomly assigned into groups and administered [^125I]bcRGDpal or [^125I]bcRGDiba via intravenous injection (37 kBq in 100 μL of PBS containing 0.1% Tween 80 (PBS-T80)). At 5 min, 30 min, 1 h, 2 h, 6 h, 12 h, or 24 h post-injection, the mice were euthanized (n = 3 per time point). The heart, kidneys, liver, brain, pancreas, spleen, lung, small intestine, large intestine, muscle, skin, stomach, bone, and tumors were excised. Each organ’s weight and radioactivity were measured by a NaI well-type scintillation counter, and the % ID/g was calculated. To investigate the correlation between integrin expression and radioactivity accumulation, biodistribution at 2 h after administration of [^125I]bcRGDpal or [^125I]bcRGDiba was assessed in A549 and U-87 MG co-implantation mice (n = 5) using the same procedure. Additionally, co-implantation mice were injected with [^125I]bcRGDdimer (37 kBq/100 μL PBS-T80) and euthanized at 30 min, 2 h, and 4 h post-injection (n = 4 per time point), and % ID/g values were calculated as described above. The minimum sample size needed for the biodistribution study in U-87 MG-bearing mice was calculated using G Power software version 3.1.9.7. The calculation was based on a two-tailed test, with an effect size of 3.9, a significance level (α) of 0.05, and a statistical power (1 − β) of 0.8. […] The minimum required sample size for the biodistribution study in A549 and U-87 MG co-implantation mice was also calculated to be four animals per group (effect size = 2.5, α = 0.05, 1 − β = 0.8). To guarantee objective results, the experiment was carried out in a blinded manner. Specifically, drug administration and radioactivity measurements were conducted by different investigators to eliminate potential bias.

[1] = U-87 MG tumor, read-out: Radioactivity in U-87 MG tumor
[2] = blood, read-out: Radioactivity in blood
[3] = bone, read-out: Radioactivity in bone
[4] = brain, read-out: Radioactivity in brain
[5] = heart, read-out: Radioactivity in heart
[6] = kidneys, read-out: Radioactivity in kidneys
[7] = large intestine, read-out: Radioactivity in large intestine
[8] = liver, read-out: Radioactivity in liver

CCCCCCCCCCCCCCCC(=O)N[C@@H](CCCCNC(=O)c1cccc(I)c1)C(=O)N1CCC[C@H]1C(=O)N1CCC[C@H]1C(=O)N1CCC[C@H]1C(=O)N[C@@H](CO)C(=O)NCC(=O)Nc1ccc(C(=O)N[C@@H](CO)C(=O)NCC(=O)N[C@H]2CSCc3cc4cc(c3)CSC[C@@H](NC(=O)[C@H](CCC(N)=O)NC(=O)[C@@H]3CCCN3C(=O)[C@H](Cc3c[nH]cn3)NC2=O)C(=O)N[C@@H](CCCNC(=N)N)C(=O)NCC(=O)N[C@@H](CC(=O)O)C(=O)N[C@@H](C(N)=O)CSC4)cc1 [[^125I]bcRGDpal] (Palmitoyl-K(Benzoyl(3-I))PPPSG[4Abz]SGCHPQ[dC]RGD[dC]-NH2; linker 10-14-18 via TBMB)
tissue uptake at 5 min [1]: 1.4 ± 0.2 %ID/g | tissue uptake at 0.5 h [1]: 3.4 ± 0.5 %ID/g | tissue uptake at 1 h [1]: 4 ± 0.5 %ID/g | tissue uptake at 2 h [1]: 3.9 ± 0.2 %ID/g | tissue uptake at 6 h [1]: 2.1 ± 0.4 %ID/g | tissue uptake at 12 h [1]: 0.9 ± 0.1 %ID/g | tissue uptake at 24 h [1]: 0.3 ± 0.1 %ID/g | tissue to tissue ratio (U-87 MG tumor/blood, all time points (5 min to 24 h)): < 1 | tissue uptake at 5 min [2]: 15.6 ± 1 %ID/g | tissue uptake at 0.5 h [2]: 12.2 ± 0.8 %ID/g | tissue uptake at 1 h [2]: 9.9 ± 0.5 %ID/g | tissue uptake at 2 h [2]: 7.8 ± 0.4 %ID/g | tissue uptake at 6 h [2]: 4.5 ± 0.4 %ID/g | tissue uptake at 12 h [2]: 2 ± 0.3 %ID/g | tissue uptake at 24 h [2]: 0.5 %ID/g | tissue uptake at 5 min [3]: 1.4 ± 0.1 %ID/g | tissue uptake at 0.5 h [3]: 1.7 ± 0.6 %ID/g | tissue uptake at 1 h [3]: 1.1 ± 0.3 %ID/g | tissue uptake at 2 h [3]: 1.3 ± 0.4 %ID/g | tissue uptake at 6 h [3]: 0.7 ± 0.1 %ID/g | tissue uptake at 12 h [3]: 0.4 %ID/g | tissue uptake at 24 h [3]: 0.1 ± 0.1 %ID/g | tissue uptake at 5 min [4]: 0.5 ± 0.1 %ID/g | tissue uptake at 0.5 h [4]: 0.3 ± 0.1 %ID/g | tissue uptake at 1 h [4]: 0.3 %ID/g | tissue uptake at 2 h [4]: 0.2 %ID/g | tissue uptake at 6 h [4]: 0.1 %ID/g | tissue uptake at 12 h [4]: 0.1 %ID/g | tissue uptake at 5 min [5]: 6.6 ± 0.1 %ID/g | tissue uptake at 0.5 h [5]: 4.7 ± 0.4 %ID/g | tissue uptake at 1 h [5]: 4.3 ± 0.3 %ID/g | tissue uptake at 2 h [5]: 3.1 ± 0.2 %ID/g | tissue uptake at 6 h [5]: 1.7 %ID/g | tissue uptake at 12 h [5]: 0.8 ± 0.1 %ID/g | tissue uptake at 24 h [5]: 0.2 %ID/g | tissue uptake at 5 min [6]: 9 ± 0.2 %ID/g | tissue uptake at 0.5 h [6]: 8.3 ± 0.9 %ID/g | tissue uptake at 1 h [6]: 7.7 ± 0.2 %ID/g | tissue uptake at 2 h [6]: 6.7 ± 0.6 %ID/g | tissue uptake at 6 h [6]: 4.2 ± 0.6 %ID/g | tissue uptake at 12 h [6]: 1.7 ± 0.2 %ID/g | tissue uptake at 24 h [6]: 0.4 %ID/g | tissue uptake at 5 min [7]: 0.9 ± 0.1 %ID/g | tissue uptake at 0.5 h [7]: 1.4 ± 0.2 %ID/g | tissue uptake at 1 h [7]: 1.4 ± 0.1 %ID/g | tissue uptake at 2 h [7]: 6.9 ± 1.1 %ID/g | tissue uptake at 6 h [7]: 11.8 ± 2 %ID/g | tissue uptake at 12 h [7]: 7.5 ± 0.8 %ID/g | tissue uptake at 24 h [7]: 2.3 ± 1.1 %ID/g | tissue uptake at 5 min [8]: 17.6 ± 0.9 %ID/g | tissue uptake at 0.5 h [8]: 19 ± 2.1 %ID/g
